# Test system: patients with moderately severe Acute Lung Injury (ALI)
# Assay: Adult ALI/ARDS study, 5 ppm iNO versus placebo: efficacy and respiratory parameters
# Assay type: in vivo, human
# Details: for mortality, benefit versus control: adults
# Method: A large-scale, randomized, blinded, placebo-controlled study was carried out in the Intensive Care Units (ICUs) of 46 US hospitals to evaluate the efficacy of low-dose (5 ppm) iNO in 385 patients with moderately severe Acute Lung Injury (ALI). The primary endpoint of this study was number of days alive and off assisted breathing.
# Patients had acute lung injury (ALI), defined by a modification of American-European Consensus Conference criteria (PaO2/inspired oxygen concentration [FiO2] ratio of ≤250 mm Hg), due to causes other than severe sepsis. Patients with evidence of non-pulmonary system failure at the time of randomization and sepsis-induced ARDS were excluded. Patients were also excluded if they had sustained hypotension requiring vasopressor support, hemodynamic profiles supporting severe sepsis, severe head injury, severe burns, or evidence of other significant organ system dysfunction at baseline.
# Patients were randomly assigned to receive either inhaled placebo gas (nitrogen) or 5 ppm of iNO (INO Therapeutics Inc., Port Allen, La.). All patients, healthcare professionals, and investigators were blinded to the assigned treatment. Inhaled NO was administered via INOvent® delivery system (Datex-Ohmeda, Madison, Wis.) that blended treatment gas (nitrogen or NO at 100-ppm balance nitrogen) 1:20 with ventilator gases to achieve a target ppm value in the inspiratory limb of the ventilator.
# All patients using the iNO delivery system received mechanical ventilatory support. Treatment continued with active or placebo gas until one of the following criteria were met: [1] end of trial (28 days); [2] death; or [3] adequate oxygenation (arterial oxygen saturation by pulse oximetry [SpO2]≥92% or PaO2 of ≥63 mm Hg) without treatment gas at ventilator settings of FiO2≤0.4 and positive end-expiratory pressure (PEEP) of ≤5 cm H2O. Decreases in treatment gas continued in 20% decrements (titrated down by 1 ppm for inhaled NO) every 30 minutes until either the treatment gas concentration reached 0% or oxygenation criteria were not satisfied. If oxygenation criteria were not met, treatment gas concentration was titrated up until they were again achieved. Increments of upward titration were determined by the clinician, based on degree of arterial desaturation.
# Baseline oxygenation measures included PaO2, arterial partial pressure of CO2 (PaCO2), SpO2, FiO2, PEEP, PaO2/FiO2 ratio, […], tidal volume, and mean airway pressure. Respiratory parameters (FiO2, PEEP, and PaO2/FiO2 ratio) were recorded on case report forms every 12 hours during mechanical ventilation.
# Between-group differences in baseline clinical and demographic characteristics were assessed with the Fisher's exact test and the chi-square test for categorical variables and with the Wilcoxon rank sum test for continuous variables. Baseline oxygenation and respiratory/oxygenation parameters in the two groups were compared using Wilcoxon rank sum tests. The areas under the curve (AUCs) of FiO2, PEEP, and PaO2/FiO2 ratio were calculated using the trapezoidal rule. The null hypothesis that the respective AUCs were normally distributed was rejected employing the Shapiro-Wilk test. A Wilcoxon rank sum test was utilized to assess the differences in each median AUC between treatment groups. A p value <0.05 was considered significant.
smiles,measurement,setting,value
"[N]=O [Nitric Oxide, nitric oxide]","days alive and meeting oxygenation criteria for extubation, benefit versus control","5 ppm iNO vs nitrogen gas, intent-to-treat",no significant benefit
same,"mortality, benefit versus control","5 ppm iNO vs nitrogen gas, intent-to-treat, listed as Inhaled NO",did not improve
same,"mortality, benefit versus control","5 ppm iNO vs nitrogen gas, intent-to-treat, listed as iNO",no significant benefit
same,"aggregate per-patient changes from baseline in supplemental oxygen, PEEP, or PaO2/FiO2 ratio, between groups","during mechanical ventilation, iNO vs placebo",no significant differences
same,partial pressure of arterial oxygen (PaO2),"initial 24 hours of treatment, resolved by 48 hours, p<0.05",significant increase
same,"days alive and off assisted breathing, benefit versus control","primary endpoint, 5 ppm iNO vs nitrogen gas, intent-to-treat",no significant benefit

# Reference: US10201564B2, “Methods of using inhaled nitric oxide gas for treatment of acute respiratory distress syndrome in children” (Mallinckrodt Hospital Products IP Limited, priority 2014, dated 2019)
